Data published in EP4700027A1, “CRYSTALLINE FORM OF NITROGEN-CONTAINING TETRACYCLIC COMPOUND AND PREPARATION METHOD THEREFOR” (Jiangsu Hengrui Pharmaceuticals Co., Ltd., priority 2023, dated 2024).

Test: Influencing factor stability study on crystal forms (light, high temperature, high humidity, 30 days)
Type: physicochemical
[1] = Light exposure (4500 Lux), 7 days
[2] = Light exposure (4500 Lux), 14 days
[3] = Light exposure (4500 Lux), 30 days

## C=CC(=O)N1CCN2C(=O)c3cc(F)c(-c4ccc(F)c5sc(N)c(C#N)c45)c4c(Cl)nn(c34)CC[C@H]2C1 [crystal form L]
40 °C, 7 days
  Color and state: Off-white solid
  Crystal form: Did not change
  Purity (%): 99.1%
40 °C, 14 days
  Color and state: Off-white solid
  Crystal form: Did not change
  Purity (%): 99.0%
40 °C, 30 days
  Color and state: Off-white solid
  Crystal form: Did not change
  Purity (%): 98.9%
60 °C, 7 days
  Color and state: Off-white solid
  Crystal form: Did not change
  Purity (%): 99.1%
60 °C, 14 days
  Color and state: Off-white solid
  Crystal form: Did not change
  Purity (%): 99.0%
60 °C, 30 days
  Color and state: Off-white solid
  Crystal form: Did not change
  Purity (%): 98.9%
75% RH, 7 days
  Color and state: Off-white solid
  Crystal form: Did not change
  Purity (%): 99.1%
75% RH, 14 days
  Color and state: Off-white solid
  Crystal form: Did not change
  Purity (%): 99.1%
75% RH, 30 days
  Color and state: Off-white solid
  Crystal form: Did not change
  Purity (%): 99.1%
92.5% RH, 7 days
  Color and state: Off-white solid
  Crystal form: Did not change
  Purity (%): 99.1%
92.5% RH, 14 days
  Color and state: Off-white solid
  Crystal form: Did not change
  Purity (%): 99.1%
92.5% RH, 30 days
  Color and state: Off-white solid
  Crystal form: Did not change
  Purity (%): 99.1%
Initial, 0 days
  Color and state: Off-white solid
  Crystal form: Crystal form L
  Purity (%): 99.1%
[1]
  Color and state: Off-white solid
  Crystal form: Did not change
  Purity (%): 98.6%
[2]
  Color and state: Off-white solid
  Crystal form: Did not change
  Purity (%): 98.2%
[3]
  Color and state: Off-white solid
  Crystal form: Did not change
  Purity (%): 98.3%

## C=CC(=O)N1CCN2C(=O)c3cc(F)c(-c4ccc(F)c5sc(N)c(C#N)c45)c4c(Cl)nn(c34)CC[C@H]2C1 [crystal form H]
40 °C, 7 days
  Color and state: Off-white solid
  Crystal form: Did not change
  Purity (%): 98.2%
40 °C, 14 days
  Color and state: Off-white solid
  Crystal form: Did not change
  Purity (%): 98.1%
40 °C, 30 days
  Color and state: Off-white solid
  Crystal form: Did not change
  Purity (%): 97.7%
60 °C, 7 days
  Color and state: Off-white solid
  Crystal form: Did not change
  Purity (%): 98.3%
60 °C, 14 days
  Color and state: Off-white solid
  Crystal form: Did not change
  Purity (%): 98.2%
60 °C, 30 days
  Color and state: Off-white solid
  Crystal form: Did not change
  Purity (%): 97.7%
75% RH, 7 days
  Color and state: Off-white solid
  Crystal form: Did not change
  Purity (%): 98.4%
75% RH, 14 days
  Color and state: Off-white solid
  Crystal form: Did not change
  Purity (%): 98.3%
75% RH, 30 days
  Color and state: Off-white solid
  Crystal form: Did not change
  Purity (%): 98.4%
92.5% RH, 7 days
  Color and state: Off-white solid
  Crystal form: Did not change
  Purity (%): 98.3%
92.5% RH, 14 days
  Color and state: Off-white solid
  Crystal form: Did not change
  Purity (%): 98.3%
92.5% RH, 30 days
  Color and state: Off-white solid
  Crystal form: Did not change
  Purity (%): 98.3%
Initial, 0 days
  Color and state: Off-white solid
  Crystal form: Crystal form H
  Purity (%): 98.3%
[1]
  Color and state: Off-white solid
  Crystal form: Did not change
  Purity (%): 97.8%
[2]
  Color and state: Off-white solid
  Crystal form: Did not change
  Purity (%): 96.8%
[3]
  Color and state: Off-white solid
  Crystal form: Did not change
  Purity (%): 94.0%
